These are literature values, as cited in patent publication US6447754B1, “Oral rinse methods and compositions” (AkPharma Inc., priority 2000, dated 2002).

The conditions of the data set: in animals; ingestion.

For “1,2,3-propanetriol, mono(dihydrogen phosphate) calcium salt (1:1) [CGP]”, the “upper limit of CGP which can safely be ingested” value was “greater than 5 grams of CGP per kilogram of body weight”.
